Experiments:
[1] = Glucuronide kinetics assay (release of β-lapachone after β-glucuronide deprotection); assay type: physicochemical; settings: pH 7, 37° C., after β-glucuronide deprotection; first experiments
Procedure: (§1) Glucuronide prodrug (37a, b, c, d) was dissolved in DMSO to a concentration of 10 mM. A 100 mM stock solution of warfarin in DMSO was also prepared. To obtain deprotected para-hydroxybenzyl ketol species, the glucuronide stock solution was dissolved in PBS with 16.7% DMF to a concentration of 1.7 mM. 15 μL of a stock solution of R-glucuronidase from E. coli K-12 (Roche #03707580001, 140 U/mL) was added to 900 μL of this stock and incubated for 20 min at 37° C. 15 μL of a 100 mM stock of warfarin internal standard in DMSO was added. Reactions were then set up immediately. For a reaction, 30 μL of the amino-benzyl ketol/standard stock was added to 195 μL of citrate-phosphate buffer at the specified pH. Test samples were incubated at 37° C. with shaking. At the recorded time points, 20 μL aliquots of the reactions were analysed by HPLC (254 nm, Agilent 1260 Infinity). HPLC conditions: column Agilent InfinityLab Poroshell 120 SB—C18 2.7 μm, 50×4.6 mm; solvent system A=H2O+0.1% TFA, B=acetonitrile+0.1% TFA; flow=1 mL/min. Gradient: t=0-1 min 0% B, t=1-2 min 0-30% B, t=2-17 min 30-40% B, t=17-17.1 min 40-100% B, t=17.1-18 min 100% B, t=18-23 min 0% B. Relative peak area represents raw peak area (mAU*s) normalized to raw peak area of the warfarin internal standard. Values recorded are averages of three independent reactions and error bars display standard error of the mean. Values were fitted to first-order kinetics using GraphPad Prism 9 software. A positive control experiment was performed under identical conditions with known substrate 4-nitrophenyl-β-D-glucuronide (Sigma Aldrich) to confirm enzyme activity.

[2] = system: Aspc-1 pancreatic cancer cell line; assay: CellTiter Glo viability assay, Aspc-1; assay type: cell-based
Procedure: (§2) For CellTiter Glo viability assays, 10,000 cells per well were plated on Day 1 and were allowed to adhere to the plate surface for 24 hours. Optimized concentration ranges of prodrugs were determined and made via serial dilution. […] Cells were incubated with compound for 48 hours and viability was assessed on Day 4 using the CellTiter Glo Viability assay which measures metabolically active cells by quantifying the amount of ATP present.
(§3) Panc-1 cells were obtained from Tony Kouzarides' lab in the Gurdon Institute at the University of Cambridge and put into culture at passage 10 containing DMEM media (Gibco) supplemented with 1% Pen-Strep antibiotic (Gibco), 1% L-glutamine, and 10% fetal bovine serum (FBS, sterile-filtered). Aspc-1 cells were bought commercially from the American Type Culture Collection (ATCC) and put into culture containing RPMI 1640 media (Gibco) supplemented with 1% Pen-Strep antibiotic (Gibco), 1% L-glutamine, and 20% fetal bovine serum (FBS, sterile-filtered). All cell lines were started at passage 10 and passaged every 3 days by centrifuging at 1000 rpm for 4 minutes.

[3] = system: MOLM-13; assay: Toxicity with/without β-glucuronidase, MOLM-13; assay type: cell-based
Procedure: (§4) Assays assessing cytotoxicity of β-lapachone and derivatives were performed by CellTiter-Blue assay (Promega) according to the manufacturer's instructions. Briefly, adherent cancer-cell lines were plated at 20,000 cells/well in 96 well plates or suspension cell lines were plated at a concentration of 2×10^5 cells/mL in 24 well plates. Compound stocks in media were made by dilution of DMSO stocks containing the compound of interest to obtain a final in-plate DMSO concentration of only 0.1%. Incubation was performed for 48 h. Following incubation, media was replaced with media containing CellTiter-Blue (Promega) in 1:10 dilution and the plates were incubated for 1.5-4 h. The fluorescence of the plates was recorded (excitation 555 nm, emission 585 nm, MiniMax i3x Reader, Molecular Devices).
(§5) Cell viability was calculated by division of the fluorescence intensity of treated wells by that of the calculated average fluorescence intensity of replicate negative control wells containing cells with 0.1% DMSO only. Values and reported error bars represent the mean and standard error of the mean of three triplicate repeats for each concentration tested. IC50 values were calculated using GraphPad Prism 8 software.
(§6) The potential of compound 37a, glucuronide-PHB-BL, as a prodrug was investigated. As discussed above, at physiological pH the compound has a relatively slow-release rate. Toxicity of Gluc-PHB-BL 37a was tested against a range of cell lines with and without added β-glucuronidase. Addition of the enzyme mimics conditions of the solid tumour environment.

[4] = system: Panc-1 pancreatic cancer cell line; assay: CellTiter Glo viability assay, Panc-1; assay type: cell-based
Procedure: as §2, §3

[5] = system: HEK-293T; assay: Toxicity with/without β-glucuronidase, HEK-293T; assay type: cell-based
Procedure: as §4, §5, §6

[6] = system: SkBr-3; assay: Toxicity with/without β-glucuronidase, SkBr-3; assay type: cell-based
Procedure: as §4, §5, §6

[7] = Stability of glucuronide prodrug to incubation at pH 7.4 at 37° C.; assay type: physicochemical; settings: pH 7.4, 37° C., 6 days; no β-lapachone observed
Procedure: An experiment testing the stability of compound 37a to incubation at pH 7.4 at 37° C. was also performed.

[8] = system: HL-60; assay: Toxicity with/without β-glucuronidase, HL-60; assay type: cell-based
Procedure: as §4, §5, §6

[9] = system: range of cell lines; assay: Toxicity of Gluc-PHB-BL against a range of cell lines with and without added β-glucuronidase; assay type: cell-based
Procedure: as §4, §5, §6

[10] = molecular target: T1, β-glucuronidase (Escherichia coli, UniProt P05804); assay: Incubation with β-glucuronidase (sugar deprotection); assay type: biochemical, E. coli K-12; settings: pH 7.4, 37° C.
T1 construct: purchased Roche 03707580001
T1 sequence (P05804 whole entry): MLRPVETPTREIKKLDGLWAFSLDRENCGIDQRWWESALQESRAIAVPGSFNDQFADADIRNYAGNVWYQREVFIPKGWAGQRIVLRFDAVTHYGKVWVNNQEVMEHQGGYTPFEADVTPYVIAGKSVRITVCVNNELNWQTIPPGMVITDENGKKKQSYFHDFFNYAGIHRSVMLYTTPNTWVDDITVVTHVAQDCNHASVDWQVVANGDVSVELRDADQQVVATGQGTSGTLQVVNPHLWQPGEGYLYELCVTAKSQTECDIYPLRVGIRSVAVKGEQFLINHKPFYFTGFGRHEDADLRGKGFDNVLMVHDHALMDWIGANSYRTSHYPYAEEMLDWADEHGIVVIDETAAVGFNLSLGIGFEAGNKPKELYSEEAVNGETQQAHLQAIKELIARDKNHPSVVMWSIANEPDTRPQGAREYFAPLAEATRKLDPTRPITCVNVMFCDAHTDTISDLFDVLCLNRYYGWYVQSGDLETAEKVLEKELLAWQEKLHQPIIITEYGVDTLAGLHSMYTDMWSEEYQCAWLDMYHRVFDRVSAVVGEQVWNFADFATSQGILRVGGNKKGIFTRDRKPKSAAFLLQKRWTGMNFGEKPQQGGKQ
Procedure: as §1, with “Values were fitted to first-order kinetics using GraphPad Prism 9 software. A positive control experiment was performed under identical conditions with known substrate 4-nitrophenyl-β-D-glucuronide (Sigma Aldrich) to confirm enzyme activity.” left out

[11] = system: HeLa; assay: Toxicity with/without β-glucuronidase, HeLa; assay type: cell-based
Procedure: as §4, §5, §6

[12] = Homo sapiens, read-out: IC50 Gluc-PHB-BL 37a

CC1(C)CCC2=C(O1)c1ccccc1C(O)(Cc1ccc(O[C@@H]3O[C@H](C(=O)O)[C@@H](O)[C@H](O)[C@H]3O)cc1)C2=O (stereo partly drawn) [Compound 37a, (2S,3S,4S,5R,6S)-3,4,5-trihydroxy-6-(4-((6-hydroxy-2,2-dimethyl-5-oxo-3,4,5,6-tetrahydro-2H-benzo[h]chromen-6-yl)methyl)phenoxy)tetrahydro-2H-pyran-2-carboxylic acid]
release rate of β-lapachone, kobs [1]: 1.09e-06 s⁻¹ | toxicity without the β-glucuronidase enzyme ([2]; Aspc-1, up to 100 μM): no toxicity | IC50 ([2]; Homo sapiens, ASPC1, 48 h): 17.4 µM | IC50 ([3]; Homo sapiens, MOLM-13, read-out: IC50 Gluc-PHB-BL 37a): 78.6 µM | IC50 (37a)/ IC50 (1) ([3]; MOLM-13): 6.50 | IC50 ([4]; Homo sapiens, PANC-1, 48 h): 10.5 µM | toxicity without the β-glucuronidase enzyme ([4]; Panc-1, up to 100 μM): no toxicity | IC50 (37a)/ IC50 (1) [5]: 7.18 | IC50 [5, 12]: 20.9 µM | toxicity without added β-glucuronidase ([5]; up to 100 μM): low toxicity | IC50 ([6]; Homo sapiens, SK-BR-3, read-out: IC50 Gluc-PHB-BL 37a): 24 µM | IC50 (37a)/ IC50 (1) ([6]; SkBr-3): 8.73 | stability to incubation [7]: completely stable | IC50 (37a)/ IC50 (1) ([8]; HL-60): 3.51 | IC50 ([8]; Homo sapiens, HL-60, read-out: IC50 Gluc-PHB-BL 37a): 15.2 µM | toxicity without added β-glucuronidase ([9]; concentrations up to 100 μM, apart from HEK-293T): not seen | times less toxic than β-lapachone 1 (comparison of estimated IC50) ([9]; treated with β-glucuronidase, 48 h): 3.5-9.7 times | sugar deprotection reaction [10]: rapid | IC50 (37a)/ IC50 (1) [11]: 9.74 | IC50 [11, 12]: 41.5 µM

— patent US20250170252A1, “QUINONE PROTECTED FORMS AND CONJUGATES” (CAMBRIDGE ENTERPRISE LIMITED, priority 2022, published 2025)
